Paper PMC12819154, “High-throughput peptide-centric local stability assay extends protein–ligand identification to membrane proteins, tissues and bacteria” (Nature Structural & Molecular Biology, 2025)

Experiments:
Type in all cases: biochemical
GuaC = target: T1, GuaC (Escherichia coli, UniProt P60560); assay: HT-PELSA limited trypsin proteolysis MS, dose-response; conditions: desalted E. coli lysate, Mg2+ (10 mM MgCl2 added), 25 °C, 30 min; allosteric
T1 construct: endogenous full-length protein in desalted E. coli lysate
T1 sequence (P60560 1-347): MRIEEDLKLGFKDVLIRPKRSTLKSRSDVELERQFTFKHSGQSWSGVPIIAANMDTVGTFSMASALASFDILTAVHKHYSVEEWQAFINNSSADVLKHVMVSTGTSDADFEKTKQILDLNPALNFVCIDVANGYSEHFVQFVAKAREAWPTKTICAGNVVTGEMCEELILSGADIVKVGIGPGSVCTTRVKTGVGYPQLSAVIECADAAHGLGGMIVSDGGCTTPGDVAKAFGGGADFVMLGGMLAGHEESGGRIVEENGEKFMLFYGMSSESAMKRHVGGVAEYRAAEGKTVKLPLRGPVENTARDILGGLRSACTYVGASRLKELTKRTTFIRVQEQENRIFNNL

mrcA = target: T2, mrcA (Escherichia coli, UniProt P02918); assay: HT-PELSA limited trypsin proteolysis MS, single concentration; conditions: crude E. coli lysate, 10 μM ampicillin, 25 °C, 30 min; C-terminal transpeptidase domain
T2 construct: endogenous membrane protein in crude E. coli lysate
T2 sequence (P02918 1-850): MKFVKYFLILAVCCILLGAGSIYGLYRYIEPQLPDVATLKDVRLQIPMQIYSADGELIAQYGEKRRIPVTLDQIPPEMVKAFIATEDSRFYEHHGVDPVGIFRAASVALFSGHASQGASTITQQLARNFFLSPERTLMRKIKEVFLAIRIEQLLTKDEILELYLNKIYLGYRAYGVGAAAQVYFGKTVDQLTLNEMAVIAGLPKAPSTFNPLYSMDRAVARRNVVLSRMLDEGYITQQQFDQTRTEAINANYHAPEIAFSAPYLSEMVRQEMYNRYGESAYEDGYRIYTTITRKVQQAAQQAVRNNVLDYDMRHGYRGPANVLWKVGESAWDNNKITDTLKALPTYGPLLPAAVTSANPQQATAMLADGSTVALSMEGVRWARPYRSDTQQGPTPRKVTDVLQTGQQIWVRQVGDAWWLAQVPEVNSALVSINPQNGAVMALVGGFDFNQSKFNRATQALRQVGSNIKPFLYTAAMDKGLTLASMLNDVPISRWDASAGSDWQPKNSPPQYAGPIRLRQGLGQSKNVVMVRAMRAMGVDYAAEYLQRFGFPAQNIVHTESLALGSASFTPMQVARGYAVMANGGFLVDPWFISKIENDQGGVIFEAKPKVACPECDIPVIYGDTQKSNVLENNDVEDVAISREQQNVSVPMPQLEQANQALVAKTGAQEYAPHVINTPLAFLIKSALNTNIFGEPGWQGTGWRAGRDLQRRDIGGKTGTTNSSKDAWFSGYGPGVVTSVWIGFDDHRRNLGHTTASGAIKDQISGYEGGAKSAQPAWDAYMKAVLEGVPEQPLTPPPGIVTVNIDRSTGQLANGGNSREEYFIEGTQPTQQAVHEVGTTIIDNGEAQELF

pbpG = target: T3, pbpG (Escherichia coli, UniProt P0AFI5); assay: as above; conditions: crude E. coli lysate, 10 μM ampicillin, 25 °C, 30 min
T3 construct: endogenous protein in crude E. coli lysate
T3 sequence (P0AFI5 26-310): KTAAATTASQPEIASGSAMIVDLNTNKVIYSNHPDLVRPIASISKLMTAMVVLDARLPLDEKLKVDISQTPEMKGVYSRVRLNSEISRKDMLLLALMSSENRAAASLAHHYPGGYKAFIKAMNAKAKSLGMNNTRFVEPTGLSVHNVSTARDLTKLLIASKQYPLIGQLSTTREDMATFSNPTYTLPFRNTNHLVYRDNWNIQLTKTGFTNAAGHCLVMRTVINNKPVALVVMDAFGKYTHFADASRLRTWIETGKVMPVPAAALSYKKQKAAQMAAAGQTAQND

mrcB = target: T4, mrcB (Escherichia coli, UniProt P02919); assay: as above; conditions: crude E. coli lysate, 10 μM ampicillin, 25 °C, 30 min; C-terminal transpeptidase domain
T4 construct: endogenous membrane protein in crude E. coli lysate
T4 sequence (P02919 1-844): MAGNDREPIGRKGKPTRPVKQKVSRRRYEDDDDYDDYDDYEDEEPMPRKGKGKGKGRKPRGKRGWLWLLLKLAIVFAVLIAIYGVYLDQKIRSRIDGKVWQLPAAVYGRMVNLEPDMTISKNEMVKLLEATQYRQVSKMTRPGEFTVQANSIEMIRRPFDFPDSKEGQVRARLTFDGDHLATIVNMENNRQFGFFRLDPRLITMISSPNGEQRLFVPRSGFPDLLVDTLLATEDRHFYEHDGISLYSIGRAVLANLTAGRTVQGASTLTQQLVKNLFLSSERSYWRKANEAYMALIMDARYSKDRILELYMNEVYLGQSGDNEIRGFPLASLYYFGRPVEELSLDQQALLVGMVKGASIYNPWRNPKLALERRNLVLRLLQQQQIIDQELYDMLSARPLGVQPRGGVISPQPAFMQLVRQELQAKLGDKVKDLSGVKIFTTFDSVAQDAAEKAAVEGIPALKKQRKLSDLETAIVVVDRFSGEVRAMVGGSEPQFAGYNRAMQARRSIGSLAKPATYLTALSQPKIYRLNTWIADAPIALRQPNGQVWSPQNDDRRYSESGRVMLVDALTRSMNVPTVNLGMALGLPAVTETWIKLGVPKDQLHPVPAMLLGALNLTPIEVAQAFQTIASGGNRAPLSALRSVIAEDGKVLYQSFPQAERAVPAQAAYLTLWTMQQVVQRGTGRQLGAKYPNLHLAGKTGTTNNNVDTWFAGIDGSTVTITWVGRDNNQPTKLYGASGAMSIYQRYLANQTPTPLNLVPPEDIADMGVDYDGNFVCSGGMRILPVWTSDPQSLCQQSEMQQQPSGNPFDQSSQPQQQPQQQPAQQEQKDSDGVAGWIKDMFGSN

dacB = target: T5, dacB (Escherichia coli, UniProt P24228); assay: as above; conditions: crude E. coli lysate, 10 μM ampicillin, 25 °C, 30 min
T5 construct: endogenous protein in crude E. coli lysate

ftsI = target: T6, ftsI (Escherichia coli, UniProt P0AD68); assay: as above; conditions: crude E. coli lysate, 10 μM ampicillin, 25 °C, 30 min
T6 construct: endogenous membrane protein in crude E. coli lysate
T6 sequence (P0AD68 1-577): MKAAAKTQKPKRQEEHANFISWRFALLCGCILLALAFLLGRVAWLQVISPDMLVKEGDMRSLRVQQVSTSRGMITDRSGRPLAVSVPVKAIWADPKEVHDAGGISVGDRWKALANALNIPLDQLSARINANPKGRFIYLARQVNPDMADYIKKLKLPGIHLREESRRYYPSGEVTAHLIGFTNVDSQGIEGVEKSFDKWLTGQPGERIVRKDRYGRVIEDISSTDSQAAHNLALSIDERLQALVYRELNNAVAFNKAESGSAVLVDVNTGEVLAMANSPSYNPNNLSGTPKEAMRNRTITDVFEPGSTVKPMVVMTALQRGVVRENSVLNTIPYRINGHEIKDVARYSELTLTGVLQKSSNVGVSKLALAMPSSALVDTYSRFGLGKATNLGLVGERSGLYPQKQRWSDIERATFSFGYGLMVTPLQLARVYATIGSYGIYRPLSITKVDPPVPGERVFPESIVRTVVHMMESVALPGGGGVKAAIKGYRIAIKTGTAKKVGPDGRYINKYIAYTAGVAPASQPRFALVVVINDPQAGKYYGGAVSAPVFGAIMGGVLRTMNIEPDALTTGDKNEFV

α subunit Prkaa2 of Ampk = target: T7, α subunit Prkaa2 of Ampk (Mus musculus, UniProt Q8BRK8); assay: HT-PELSA limited trypsin proteolysis MS, dose-response; conditions: mouse heart lysate in PBS, 25 °C, 30 min, 0.2 nM-20 μM
T7 construct: endogenous catalytic subunit of AMPK in mouse heart lysate

Csn1ke = target: T8, Csn1ke (Mus musculus, UniProt Q9JMK2); assay: as above; conditions: mouse heart lysate in PBS, 25 °C, 30 min, 0.2 nM-20 μM
T8 construct: gene Csnk1e; endogenous protein in mouse heart lysate; printed Csn1ke read as Csnk1e
T8 sequence (Q9JMK2 1-416): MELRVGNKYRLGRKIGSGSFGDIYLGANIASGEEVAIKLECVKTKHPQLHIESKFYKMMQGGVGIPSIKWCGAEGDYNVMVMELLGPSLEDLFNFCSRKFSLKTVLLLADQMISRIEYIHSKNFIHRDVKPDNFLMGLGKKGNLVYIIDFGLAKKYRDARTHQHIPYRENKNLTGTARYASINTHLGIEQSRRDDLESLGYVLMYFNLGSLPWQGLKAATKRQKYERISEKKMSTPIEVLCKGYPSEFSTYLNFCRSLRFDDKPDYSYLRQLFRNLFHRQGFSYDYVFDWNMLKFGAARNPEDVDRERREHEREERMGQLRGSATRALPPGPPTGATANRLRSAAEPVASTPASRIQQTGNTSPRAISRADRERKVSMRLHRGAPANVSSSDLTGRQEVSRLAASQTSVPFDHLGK

T7 sequence (Q8BRK8 whole entry): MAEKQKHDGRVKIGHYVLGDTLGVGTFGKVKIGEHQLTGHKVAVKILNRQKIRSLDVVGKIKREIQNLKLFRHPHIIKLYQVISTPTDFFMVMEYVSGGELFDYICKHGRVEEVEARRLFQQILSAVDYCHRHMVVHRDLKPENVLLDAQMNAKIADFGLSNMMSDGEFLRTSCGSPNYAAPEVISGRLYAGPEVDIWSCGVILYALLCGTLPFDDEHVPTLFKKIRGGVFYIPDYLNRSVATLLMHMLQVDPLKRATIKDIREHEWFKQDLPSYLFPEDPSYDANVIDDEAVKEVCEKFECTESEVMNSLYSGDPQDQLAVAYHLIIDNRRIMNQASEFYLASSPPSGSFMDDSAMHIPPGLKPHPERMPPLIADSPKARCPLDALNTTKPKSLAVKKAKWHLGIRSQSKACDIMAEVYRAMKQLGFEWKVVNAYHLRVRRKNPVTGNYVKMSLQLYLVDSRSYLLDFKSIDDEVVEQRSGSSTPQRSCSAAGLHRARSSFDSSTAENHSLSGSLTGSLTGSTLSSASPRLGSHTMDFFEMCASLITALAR
T5 sequence (P24228 21-477): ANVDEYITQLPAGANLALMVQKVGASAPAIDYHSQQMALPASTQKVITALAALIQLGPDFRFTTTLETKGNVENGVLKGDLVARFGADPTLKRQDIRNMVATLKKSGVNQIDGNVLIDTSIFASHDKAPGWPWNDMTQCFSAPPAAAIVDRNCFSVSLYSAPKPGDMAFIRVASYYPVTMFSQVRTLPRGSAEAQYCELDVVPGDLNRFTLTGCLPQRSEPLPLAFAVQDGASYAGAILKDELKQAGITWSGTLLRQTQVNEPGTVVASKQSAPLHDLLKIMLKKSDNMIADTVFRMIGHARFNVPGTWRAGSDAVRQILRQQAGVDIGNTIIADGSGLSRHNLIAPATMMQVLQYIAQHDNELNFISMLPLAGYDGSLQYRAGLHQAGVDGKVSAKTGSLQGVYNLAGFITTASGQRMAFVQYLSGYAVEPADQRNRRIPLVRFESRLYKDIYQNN

Nc1ncnc2c1ncn2[C@@H]1O[C@H](COP(=O)(O)OP(=O)(O)OP(=O)(O)O)[C@@H](O)[C@H]1O [ATP]
pEC50 (GuaC): Among the non-annotated ATP binders, we identify GuaC

CC1(C)S[C@@H]2[C@H](NC(=O)[C@H](N)c3ccccc3)C(=O)N2[C@H]1C(=O)O [ampicillin]
HT-PELSA limited trypsin proteolysis MS, single concentration (mrcA): HT-PELSA identified five known targets of ampicillin (mrcA, mrcB, ftsI, dacB and pbpG | HT-PELSA limited trypsin proteolysis MS, single concentration (pbpG): HT-PELSA identified five known targets of ampicillin (mrcA, mrcB, ftsI, dacB and pbpG | HT-PELSA limited trypsin proteolysis MS, single concentration (mrcB): HT-PELSA identified five known targets of ampicillin (mrcA, mrcB, ftsI, dacB and pbpG | HT-PELSA limited trypsin proteolysis MS, single concentration (dacB): HT-PELSA identified five known targets of ampicillin (mrcA, mrcB, ftsI, dacB and pbpG | HT-PELSA limited trypsin proteolysis MS, single concentration (ftsI): HT-PELSA identified five known targets of ampicillin (mrcA, mrcB, ftsI, dacB and pbpG

CCN(CC)CCNC(=O)c1c(C)[nH]c(/C=C2\C(=O)Nc3ccc(F)cc32)c1C [sunitinib]
pEC50 (α subunit Prkaa2 of Ampk): the α subunit Prkaa2 of Ampk, Camk2g, Csn1ke and Csnk1g2 | pEC50 (Csn1ke): the α subunit Prkaa2 of Ampk, Camk2g, Csn1ke and Csnk1g2
